# Measurements published in patent publication US12285407B2, “Bis-indolylmethane derivatives and uses thereof” (The University of The West Indies, priority 2018, dated 2025).
# Read-outs that look alike come from different tables or passages of the source.
# What was measured:
# [1] = test system: MRSA HS 10132; experiment: Systemic lethal MRSA infection in mice (survival); assay type: in vivo
# [2] = test system: Escherichia coli O157:H7; assay type: cell-based; conditions: antibiotic alone, no SP-BIM
# [3] = test system: Pseudomonas aeruginosa; experiment: Adjuvant broth microdilution (antibiotic MIC with SP-BIM at 50 μg/mL); assay type: cell-based; conditions: antibiotic alone
# [4] = test system: clinical strains of Enterococcus faecium; experiment: Kirby Bauer disc diffusion susceptibility profile; assay type: cell-based; conditions: for Zone of clearance: 35° C., 24 hours, average n=3; for Interpretive standard (resistant/susceptible): zones vs EUCAST breakpoints (Table 31)
# [5] = test system: Escherichia coli O157:H7; experiment: Rescue concentrations of SP-BIM that reactivate antibiotic; assay type: cell-based; conditions: for MIC: Escherichia coli
# [6] = test system: clinical strains of MRSA; experiment: Kirby Bauer disc diffusion susceptibility profile; assay type: cell-based, Staphylococcus aureus; conditions: for Zone of clearance: 35° C., 24 hours, average n=3; for Interpretive standard (resistant/susceptible): zones vs EUCAST breakpoints (Table 30)
# [7] = test system: MRSA HS 10132; experiment: Systemic non-lethal MRSA infection in mice (organ MRSA load); assay type: in vivo
# [8] = test system: Bacillus cereus; experiment: Adjuvant broth microdilution (antibiotic MIC with SP-BIM at 50 μg/mL); assay type: cell-based; conditions: antibiotic alone, Table 9
# [9] = test system: Klebsiella pneumoniae; experiment: as above; assay type: cell-based; conditions: for MIC of antibiotic, No Compound: Klebsiella pneumonia, no SP-BIM; for MIC: Klebsiella pneumoniae, read-out: MIC of antibiotic, No compound
# [10] = test system: α-hemolysin production in Staphylococcus aureus; assay type: cell-based
# [11] = test system: Klebsiella pneumoniae ATCC 49472; experiment: Broth microdilution MIC of SP-BIMs; assay type: cell-based; conditions: ATCC49472, SP-BIM alone, read-out: MIC Klebisella pneumoniae ATCC 49472
# [12] = test system: reference pathogen strains; experiment: Checkerboard synergy study, summary over pathogens; assay type: cell-based; conditions: checkerboard with SP-BIM 13
# [13] = test system: Corynebacterium diphtheriae ATCC 27010; experiment: Broth microdilution MIC of SP-BIMs; assay type: cell-based; conditions: ATCC27010, SP-BIM alone, read-out: MIC Corynebacterium diphtheriae ATCC 27010
# [14] = in vitro; conditions: human
# [15] = test system: Salmonella typhimurium ATCC 14028; experiment: Broth microdilution MIC of SP-BIMs; assay type: cell-based; conditions: Salmonella enterica, read-out: MIC Salmonella tvpkimurium ATCC 14028
# Procedure, shortened: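 S. typhimurium at ~10^6 CFU mL^−1 in cation-adjusted Mueller Hinton broth was exposed to twofold compound dilutions from 250 to 0.02 μg mL^−1 at 35° C. for 18 hours. Resazurin was then added, with 1 hour of shaking. MIC was the lowest concentration showing no blue-to-pink colour change.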
# [16] = test system: Staphylococcus aureus ATCC 12600; experiment: Broth microdilution MIC of SP-BIMs; assay type: cell-based; conditions: ATCC12600, SP-BIM alone, read-out: MIC Staphylococcus aureus ATCC 12600
# [17] = test system: Pseudomonas aeruginosa ATCC 27853; experiment: Broth microdilution MIC of SP-BIMs; assay type: cell-based; conditions: ATCC27853, SP-BIM alone, read-out: MIC Pseudomonas aeruginosa ATCC 27853
# [18] = test system: sarA, agrA, RNA III, mecA, blaZ and fnbA genes; experiment: Real time gene expression analysis in MRSA cells; conditions: MRSA cells exposed to SP-BIM 13 only, or SP-BIM 13 in combination with ampicillin; 5 and 10 μg mL^−1
smiles,measurement,setting,value
"CC1(C)S[C@@H]2[C@H](NC(=O)[C@H](N)c3ccccc3)C(=O)N2[C@H]1C(=O)O [Ampicillin, ampicillin]",mortality,"[1]; ampicillin only, 5 days",100%
same,"MIC of antibiotic, No Compound",[2],8 µg/mL
same,"MIC of antibiotic, No Compound",[3],>250 µg/mL
same,Zone of clearance,[4]; E. faecium strain 15134,37 mm
same,Interpretive standard (resistant/susceptible),[4]; E. faecium strain 15134,S
same,Zone of clearance,[4]; E. faecium strain 21024,32 mm
same,Interpretive standard (resistant/susceptible),[4]; E. faecium strain 21024,S
same,Zone of clearance,[4]; E. faecium strain 21955,32 mm
same,Interpretive standard (resistant/susceptible),[4]; E. faecium strain 21955,S
same,Zone of clearance,[4]; E. faecium strain 22003,37 mm
same,Interpretive standard (resistant/susceptible),[4]; E. faecium strain 22003,S
same,Zone of clearance,[4]; E. faecium strain 22870,10 mm
same,Interpretive standard (resistant/susceptible),[4]; E. faecium strain 22870,R
same,Zone of clearance,[4]; E. faecium strain 23227,26 mm
same,Interpretive standard (resistant/susceptible),[4]; E. faecium strain 23227,S
same,Zone of clearance,[4]; E. faecium strain 23230,36 mm
same,Interpretive standard (resistant/susceptible),[4]; E. faecium strain 23230,S
same,Zone of clearance,[4]; E. faecium strain 23668,39 mm
same,Interpretive standard (resistant/susceptible),[4]; E. faecium strain 23668,S
same,Zone of clearance,[4]; E. faecium strain 24169,33 mm
same,Interpretive standard (resistant/susceptible),[4]; E. faecium strain 24169,S
same,Zone of clearance,[4]; E. faecium strain RC63,12 mm
same,Interpretive standard (resistant/susceptible),[4]; E. faecium strain RC63,R
same,MIC of Ampicillin in combination with […] SP-BIM 27,"[5]; E. coli O157:H7, with […] SP-BIM 27",2 µg/mL
same,MIC,[5]; read-out: MIC of Ampicillin,16 µg/mL
same,Zone of clearance,[6]; MRSA strain 1594,13.0 mm
same,Interpretive standard (resistant/susceptible),[6]; MRSA strain 1594,R
same,Interpretive standard (resistant/susceptible),[6]; MRSA strain 1621,R
same,Zone of clearance,[6]; MRSA strain 5455,14.5 mm
same,Interpretive standard (resistant/susceptible),[6]; MRSA strain 5455,R
same,Zone of clearance,[6]; MRSA strain 5872,9.0 mm
same,Interpretive standard (resistant/susceptible),[6]; MRSA strain 5872,R
same,Zone of clearance,[6]; MRSA strain 7153,13.5 mm
same,Interpretive standard (resistant/susceptible),[6]; MRSA strain 7153,R
same,Zone of clearance,[6]; MRSA strain 7172,14.5 mm
same,Interpretive standard (resistant/susceptible),[6]; MRSA strain 7172,R
same,Zone of clearance,[6]; MRSA strain 7698,10.5 mm
same,Interpretive standard (resistant/susceptible),[6]; MRSA strain 7698,R
same,Zone of clearance,[6]; MRSA strain 10132,14.0 mm
same,Interpretive standard (resistant/susceptible),[6]; MRSA strain 10132,R
same,MRSA load in the spleen,"[7]; ampicillin only ([…] mg kg^−1), SP-BIM 9 study","14,622 CFU g^−1"
same,MRSA counts in liver,"[7]; ampicillin only ([…] mg kg^−1), subcutaneous",3500 CFU mL^−1
same,MRSA counts in the liver,"[7]; ampicillin only, SP-BIM 9 study",7605 CFU g^−1
same,"MIC of antibiotic, No Compound",[8],>250 µg/mL
same,"MIC of antibiotic, No Compound",[9]; antibiotic alone,>250 µg/mL
same,MIC,"[9]; antibiotic alone, Table 7",> 250 µg/mL
"Oc1cc(C(c2c[nH]c3ccccc23)c2c[nH]c3ccccc23)cc(O)c1O [SP-BIM 13, 5-(di(1H-indol-3-yl)methyl)benzene-1,2,3-triol]",mortality,[1]; SP-BIM 13 only 5 mg kg^−1,40%
same,mortality,[1]; SP-BIM 13 only 10 mg kg^−1,60%
same,mortality,[1]; SP-BIM 13 only 25 mg kg^−1,0%
same,mortality,"[1]; ampicillin in combination with three levels SP-BIM 13, 5 days",0%
same,survival rate,[1]; vancomycin in combination with the three levels of SP-BIM 13,similarly high survival rate
same,lysis of RBCs,[10],less than 50%
same,MIC,[11],> 250 µg/mL
same,reduction of most antibiotic MICs,[12]; Gram-positive and Gram-negative pathogens,reduced by tenfold or more
same,interaction effect in combinations with trimethoprim,[12],antagonistic
same,MIC,[13],> 250 µg/mL
same,MRSA load in the spleen,"[7]; SP-BIM 13 only, both levels",did not significantly reduce
same,MRSA counts in liver,[7]; ampicillin ([…] mg kg^−1)+5 mg kg^−1 SP-BIM 13,7900 CFU mL^−1
same,MRSA counts in liver,[7]; ampicillin ([…] mg kg^−1)+10 mg kg^−1 SP-BIM 13,900 CFU mL^−1
same,MRSA counts in liver,[7]; ampicillin ([…] mg kg^−1)+25 mg kg^−1 SP-BIM 13,63 CFU mL^−1
same,MRSA load in the spleen,"[7]; ampicillin and SP-BIM 13 at 10 and 25 mg kg^−1, vs no treatment, ampicillin only, ampicillin+5 mg kg^−1",significantly lower
same,CC50,[14],750 µM
same,MIC,[15],250 µg/mL
same,MIC,[16],> 250 µg/mL
same,MIC,[17],250 µg/mL
same,expression of both the downstream and regulator genes,[18],significantly reduced
"CN[C@H](CC(C)C)C(=O)N[C@H]1C(=O)N[C@@H](CC(N)=O)C(=O)N[C@H]2C(=O)N[C@H]3C(=O)N[C@H](C(=O)N[C@H](C(=O)O)c4cc(O)cc(O)c4-c4cc3ccc4O)[C@H](O)c3ccc(c(Cl)c3)Oc3cc2cc(c3O[C@@H]2O[C@H](CO)[C@@H](O)[C@H](O)[C@H]2O[C@H]2C[C@](C)(N)[C@H](O)[C@H](C)O2)Oc2ccc(cc2Cl)[C@H]1O [Vancomycin, vancomycin]",survival rate,[1]; vancomycin only,similarly high survival rate
same,"MIC of antibiotic, No Compound",[2],250 µg/mL
same,"MIC of antibiotic, No Compound",[3],>250 µg/mL
same,Zone of clearance,[4]; E. faecium strain 15134,12 mm
same,Interpretive standard (resistant/susceptible),[4]; E. faecium strain 15134,S
same,Zone of clearance,[4]; E. faecium strain 21024,9 mm
same,Interpretive standard (resistant/susceptible),[4]; E. faecium strain 21024,R
same,Zone of clearance,[4]; E. faecium strain 21955,15 mm
same,Interpretive standard (resistant/susceptible),[4]; E. faecium strain 21955,S
same,Zone of clearance,[4]; E. faecium strain 22003,16 mm
same,Interpretive standard (resistant/susceptible),[4]; E. faecium strain 22003,S
same,Zone of clearance,[4]; E. faecium strain 22870,10 mm
same,Interpretive standard (resistant/susceptible),[4]; E. faecium strain 22870,R
same,Zone of clearance,[4]; E. faecium strain 23227,9 mm
same,Interpretive standard (resistant/susceptible),[4]; E. faecium strain 23227,R
same,Zone of clearance,[4]; E. faecium strain 23230,5 mm
same,Interpretive standard (resistant/susceptible),[4]; E. faecium strain 23230,R
same,Zone of clearance,[4]; E. faecium strain 23668,10 mm
same,Interpretive standard (resistant/susceptible),[4]; E. faecium strain 23668,R
same,Zone of clearance,[4]; E. faecium strain 24169,10 mm
same,Interpretive standard (resistant/susceptible),[4]; E. faecium strain 24169,R
same,Zone of clearance,[4]; E. faecium strain RC63,8 mm
same,Interpretive standard (resistant/susceptible),[4]; E. faecium strain RC63,R
same,MIC,[5]; read-out: MIC (single agent),250 µg/mL
same,"MIC of antibiotic, No Compound",[8],4 µg/mL
same,"MIC of antibiotic, No Compound",[9]; antibiotic alone,>250 µg/mL
same,MIC,[9],> 250 µg/mL
